In patent US12077503B2, “Substituted cyclic amides and their use as herbicides” (FMC CORPORATION, priority 2015, dated 2024):

Columns and labels:
Format in all cases: in vivo
[1] = test system: giant foxtail (Setaria faberii); test: Test A preemergence; settings: Setaria faberi, pre-emergence, 240 h, Preemergence; for pest or weed control at 31 g/ha: 31 g ai/ha, 0 to 100 scale where 0 is no effect and 100 is complete control, read-out: Foxtail, Giant plant response rating; for pest or weed control at 125 g/ha: 125 g ai/ha, 0 to 100 scale (0 no effect, 100 complete control), read-out: Plant response rating, Foxtail, Giant
Summary of the method: (§1)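 Seeded soil received test chemicals as a preemergence directed spray, and seedlings at one to two leaves, 2–10 cm tall, received them postemergence, in a non-phytotoxic, surfactant-containing solvent mixture. Pots were held in a greenhouse for approximately 10 d, then rated for injury from 0, no effect, to 100, complete control.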

[2] = test system: barnyardgrass (Echinochloa crus-galli); test: Test A preemergence; settings: Echinochloa crus-galli, pre-emergence, 240 h, Preemergence; for pest or weed control at 31 g/ha: 31 g ai/ha, 0 to 100 scale where 0 is no effect and 100 is complete control, read-out: Barnyardgrass plant response rating; for pest or weed control at 125 g/ha: 125 g ai/ha, 0 to 100 scale (0 no effect, 100 complete control), read-out: Plant response rating, Barnyardgrass
Summary of the method: as §1

[3] = test system: Kochia (Kochia scoparia); test: Test A preemergence; settings: Bassia scoparia, pre-emergence, 240 h, Preemergence; for pest or weed control at 31 g/ha: 31 g ai/ha, 0 to 100 scale where 0 is no effect and 100 is complete control, read-out: Kochia plant response rating; for pest or weed control at 125 g/ha: 125 g ai/ha, 0 to 100 scale (0 no effect, 100 complete control), read-out: Plant response rating, Kochia
Summary of the method: as §1

[4] = test system: ragweed (common ragweed, Ambrosia elatior); test: Test A preemergence; settings: Ambrosia artemisiifolia, pre-emergence, 240 h, Preemergence; for pest or weed control at 31 g/ha: 31 g ai/ha, 0 to 100 scale where 0 is no effect and 100 is complete control, read-out: Ragweed plant response rating; for pest or weed control at 125 g/ha: 125 g ai/ha, 0 to 100 scale (0 no effect, 100 complete control), read-out: Plant response rating, Ragweed
Summary of the method: as §1

[5] = test system: ryegrass, Italian (Italian ryegrass, Lolium multiflorum); test: Test A preemergence; settings: Lolium multiflorum, pre-emergence, 240 h, Preemergence; for pest or weed control at 31 g/ha: 31 g ai/ha, 0 to 100 scale where 0 is no effect and 100 is complete control, read-out: Ryegrass, Italian plant response rating; for pest or weed control at 125 g/ha: 125 g ai/ha, 0 to 100 scale (0 no effect, 100 complete control), read-out: Plant response rating, Ryegrass, Italian
Summary of the method: as §1

[6] = test system: pigweed (Amaranthus retroflexus); test: Test A preemergence; settings: Amaranthus retroflexus, pre-emergence, 240 h, Preemergence; for pest or weed control at 31 g/ha: 31 g ai/ha, 0 to 100 scale where 0 is no effect and 100 is complete control, read-out: Pigweed plant response rating; for pest or weed control at 125 g/ha: 125 g ai/ha, 0 to 100 scale (0 no effect, 100 complete control), read-out: Plant response rating, Pigweed
[7] = test system: sedge, umbrella (small-flower umbrella sedge, Cyperus difformis); test: Test B flooded paddy test; settings: Cyperus difformis, 360 h, Flood, 250 g ai/ha; visually evaluated after 13 to 15 d; read-out: Plant response rating, Sedge, Umbrella (0 to 100 scale where 0 is no effect and 100 is complete control)
Summary of the method: (§2)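 Plants at 2-leaf stage flooded to 3 cm above soil, with compounds applied directly to paddy water and that depth maintained. Plants kept in greenhouse 13–15 d. Visual rating versus controls on a 0 (no effect) to 100 (complete control) scale.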

[8] = test system: rice (Oryra sativa); test: Test B flooded paddy test; settings: Oryza sativa, 360 h, Flood, 250 g ai/ha; visually evaluated after 13 to 15 d; read-out: Plant response rating, Rice (0 to 100 scale where 0 is no effect and 100 is complete control)
Summary of the method: as §2

[9] = test system: barnyardgrass (Echinochloa crus-galli); test: Test B flooded paddy test; settings: Echinochloa crus-galli, 360 h, Flood, 250 g ai/ha; visually evaluated after 13 to 15 d; read-out: Plant response rating, Barnyardgrass (0 to 100 scale where 0 is no effect and 100 is complete control)
Summary of the method: as §2

[10] = test system: ducksalad (Heteranthera limosa); test: Test B flooded paddy test; settings: Heteranthera limosa, 360 h, Flood, 250 g ai/ha; visually evaluated after 13 to 15 d; read-out: Plant response rating, Ducksalad (0 to 100 scale where 0 is no effect and 100 is complete control)
Summary of the method: as §2

[11] = test system: giant foxtail (Setaria faberii); test: Test A postemergence; settings: Setaria faberi, post-emergence, 240 h, Postemergence, read-out: Foxtail, Giant plant response rating (0 to 100 scale); for pest or weed control at 125 g/ha: 125 g ai/ha, visual rating about 10 d after treatment; for pest or weed control at 31 g/ha: 31 g ai/ha, 0 is no effect, 100 is complete control
Summary of the method: as §1

[12] = test system: blackgrass (Alopecurus myosuroides); test: Test A postemergence; settings: Alopecurus myosuroides, post-emergence, 240 h, Postemergence, read-out: Blackgrass plant response rating (0 to 100 scale); for pest or weed control at 125 g/ha: 125 g ai/ha, visual rating about 10 d after treatment; for pest or weed control at 31 g/ha: 31 g ai/ha, 0 is no effect, 100 is complete control
Summary of the method: as §1

[13] = test system: barnyardgrass (Echinochloa crus-galli); test: Test A postemergence; settings: Echinochloa crus-galli, post-emergence, 240 h, Postemergence; for pest or weed control at 125 g/ha: 125 g ai/ha, visual rating about 10 d after treatment, read-out: Barnyardgrass plant response rating (0 to 100 scale, 0 no effect, 100 complete control); for pest or weed control at 31 g/ha: 31 g ai/ha, 0 is no effect, 100 is complete control, read-out: Barnyardgrass plant response rating (0 to 100 scale)
Summary of the method: as §1

[14] = test system: Kochia (Kochia scoparia); test: Test A postemergence; settings: Bassia scoparia, post-emergence, 240 h, Postemergence, read-out: Kochia plant response rating (0 to 100 scale); for pest or weed control at 125 g/ha: 125 g ai/ha, visual rating about 10 d after treatment; for pest or weed control at 31 g/ha: 31 g ai/ha, 0 is no effect, 100 is complete control
Summary of the method: as §1

[15] = test system: ragweed (common ragweed, Ambrosia elatior); test: Test A postemergence; settings: Ambrosia artemisiifolia, post-emergence, 240 h, Postemergence, read-out: Ragweed plant response rating (0 to 100 scale); for pest or weed control at 125 g/ha: 125 g ai/ha, visual rating about 10 d after treatment; for pest or weed control at 31 g/ha: 31 g ai/ha, 0 is no effect, 100 is complete control
Summary of the method: as §1

[16] = test system: ryegrass, Italian (Italian ryegrass, Lolium multiflorum); test: Test A postemergence; settings: Lolium multiflorum, post-emergence, 240 h, Postemergence, read-out: Ryegrass, Italian plant response rating (0 to 100 scale); for pest or weed control at 125 g/ha: 125 g ai/ha, visual rating about 10 d after treatment; for pest or weed control at 31 g/ha: 31 g ai/ha, 0 is no effect, 100 is complete control
Summary of the method: as §1

[17] = test system: wheat (Triticum aestivum); test: Test A postemergence; settings: Triticum aestivum, post-emergence, 240 h, Postemergence, read-out: Wheat plant response rating (0 to 100 scale); for plant injury at 125 g/ha: 125 g ai/ha, visual rating about 10 d after treatment; for plant injury at 31 g/ha: 31 g ai/ha, 0 is no effect, 100 is complete control
Summary of the method: as §1

[18] = test system: pigweed (Amaranthus retroflexus); test: Test A postemergence; settings: Amaranthus retroflexus, post-emergence, 240 h, Postemergence, read-out: Pigweed plant response rating (0 to 100 scale); for pest or weed control at 125 g/ha: 125 g ai/ha, visual rating about 10 d after treatment; for pest or weed control at 31 g/ha: 31 g ai/ha, 0 is no effect, 100 is complete control
Summary of the method: as §1

[19] = test system: corn (Zea mays); test: Test A postemergence; settings: Zea mays, post-emergence, 240 h, Postemergence, read-out: Corn plant response rating (0 to 100 scale); for plant injury at 125 g/ha: 125 g ai/ha, visual rating about 10 d after treatment; for plant injury at 31 g/ha: 31 g ai/ha, 0 is no effect, 100 is complete control
Summary of the method: as §1

Row | SMILES | pest or weed control at 31 g/ha [1] [%] | pest or weed control at 125 g/ha [1] [%] | pest or weed control at 31 g/ha [2] [%] | pest or weed control at 125 g/ha [2] [%] | pest or weed control at 31 g/ha [3] [%] | pest or weed control at 125 g/ha [3] [%] | pest or weed control at 31 g/ha [4] [%] | pest or weed control at 125 g/ha [4] [%] | pest or weed control at 31 g/ha [5] [%] | pest or weed control at 125 g/ha [5] [%] | pest or weed control at 31 g/ha [6] [%] | pest or weed control at 125 g/ha [6] [%] | pest or weed control at 250 g/ha [7] [%] | pest or weed control at 250 g/ha [8] [%] | pest or weed control at 250 g/ha [9] [%] | pest or weed control at 250 g/ha [10] [%] | pest or weed control at 125 g/ha [11] [%] | pest or weed control at 31 g/ha [11] [%] | pest or weed control at 125 g/ha [12] [%] | pest or weed control at 31 g/ha [12] [%] | further results
1 | COc1ccc([C@H]2CNC(=O)[C@@H]2C(=O)Nc2cccc(F)c2F)cc1 [Compound 1341] | 10 | 70 | 0 | 60 | 30 | 0 | 20 | 0 | 0 | 0 | 0 | 0 | 0 | 0 | 30 | 90 | 0 | 0 | 0 | 0 | pest or weed control at 125 g/ha [13]: 90%; pest or weed control at 31 g/ha [13]: 40%; pest or weed control at 125 g/ha [14]: 0%; pest or weed control at 31 g/ha [14]: 0%; pest or weed control at 125 g/ha [15]: 0%; pest or weed control at 31 g/ha [15]: 0%; pest or weed control at 125 g/ha [16]: 0%; pest or weed control at 31 g/ha [16]: 0%; plant injury at 125 g/ha [17]: 0%; plant injury at 31 g/ha [17]: 0%; pest or weed control at 125 g/ha [18]: 0%; pest or weed control at 31 g/ha [18]: 0%; plant injury at 125 g/ha [19]: 0%; plant injury at 31 g/ha [19]: 0%
2 | COc1ccc([C@H]2CN(C)C(=O)[C@@H]2C(=O)Nc2cccc(F)c2F)cc1 [Compound 1343] | 100 | 100 | 90 | 90 | 0 | 40 | 90 | 0 | 0 | 30 | 0 | 30 | 0 | 0 | 95 | 98 | 90 | 60 | 0 | 0 | pest or weed control at 125 g/ha [13]: 90%; pest or weed control at 31 g/ha [13]: 60%; pest or weed control at 125 g/ha [14]: 50%; pest or weed control at 31 g/ha [14]: 0%; pest or weed control at 125 g/ha [15]: 30%; pest or weed control at 31 g/ha [15]: 0%; pest or weed control at 125 g/ha [16]: 20%; pest or weed control at 31 g/ha [16]: 0%; plant injury at 125 g/ha [17]: 30%; plant injury at 31 g/ha [17]: 0%; pest or weed control at 125 g/ha [18]: 0%; pest or weed control at 31 g/ha [18]: 0%; plant injury at 125 g/ha [19]: 0%; plant injury at 31 g/ha [19]: 0%
3 | CN1C[C@H](c2ccc3c(c2)OC(F)(F)O3)[C@@H](C(=O)Nc2ccc(F)nc2F)C1=O [Compound 1350] | 100 | 100 | 90 | 90 | 30 | 70 | 50 | 80 | 30 | 30 | 70 | 90 | 0 | 0 | 90 | 90 | 90 | 70 | 50 | 0 | pest or weed control at 125 g/ha [13]: 90%; pest or weed control at 31 g/ha [13]: 60%; pest or weed control at 125 g/ha [14]: 70%; pest or weed control at 31 g/ha [14]: 50%; pest or weed control at 125 g/ha [15]: 60%; pest or weed control at 31 g/ha [15]: 0%; pest or weed control at 125 g/ha [16]: 20%; pest or weed control at 31 g/ha [16]: 20%; plant injury at 125 g/ha [17]: 50%; plant injury at 31 g/ha [17]: 20%; pest or weed control at 125 g/ha [18]: 70%; pest or weed control at 31 g/ha [18]: 30%; plant injury at 125 g/ha [19]: 50%; plant injury at 31 g/ha [19]: 30%
